According to patent publication US4518611A, “2-Furylbutyrolactone modulation of the immune system in mammals” (priority 1983, dated 1985):
Where “and” joins values, the source holds several entries; their conditions need not be identical. Identical values can stand only once. Entries after “also recorded” stand apart in the source; their conditions may differ. Like-named read-outs stand apart in the source and are kept apart here.

Key:
CD rats = conditions: 14 days
Procedure: (§1) Single oral dose LD50 in CD-1 mice and CD rats, obtained from Charles River U.K. Ltd., for Cpd. 1 is determined. […] Cpd. 1, dissolved in buffer, or just buffer is administered orally and the mice and rats are observed for 14 days after dosing. After 14 days, the animals are sacrificed and necropsy is performed to check for gross evidence of toxicity.

CD-1 mice = conditions: 14 days
Procedure: as §1

spleen lymphocytes [1] = assay: Lymphocyte stimulation assay after in vivo treatment, C57BL/6 mice; conditions: for effect on Con-A response (in words) / effect on PHA response (in words) / effect on mitogen response (in words): i.p.; for effect on mitogen response (in words): PHA and Con-A
Procedure: The purpose of this assay is to challenge lymphocytes in microcultures with one or more polyclonal mitogens at concentrations that will induce mitogenesis within 72 hours of stimulation.
In the mouse model, spleens are removed from different strains of mice and the spleen cells are teased free and suspended in RPMI-1640 tissue culture medium at a concentration of usually […]. These cells are dispensed at a concentration of 5.0×10^5 cells per microculture well in a 96 well flat bottom 96 well tissue culture plate. All testing of the compounds of this invention or mitogens are done in replicates of 10. The cells are then treated with PHA, Con-A, specific antigens, or buffer only. If in vitro testing is done, varying concentrations of the compounds of this invention or buffer only are added to the cells as well. After treatment with the mitogens and/or compounds of this invention, the cells are incubated for 72 hours. The response of these cells to mitogens and/or the compounds of this invention is assessed using ^14 C-thymidine labeling on the fourth day at a concentration of 0.01 μCi/well. The labeled cells are harvested using a lymphocyte harvestor and placed onto fibrous paper discs. A scintillation cocktail is added to vials containing the discs and the results are obtained using a LKB-liquid scintillation counter (Model 1216/Rackbeta II). The data is expressed as a ratio of the cpm of the mitogen stimulated group to the control (nonmitogen) treated group=lymphocyte stimulation index (LSI).
The lymphocyte stimulation assay may be performed directly on spleen cells obtained from various strains of mice not treated with the compounds of this invention or on lymphocytes obtained from human […]. […] Alternatively, the mice may be treated in vivo with the compounds of this invention by intraperitoneal multi-dose schedules, followed by sacrifice and harvesting spleen lymphocytes. These cells are then tested for their response to polyclonal mitogens or specific antigens used to immunize the mice. In this system however, no additional compound is added to the in vitro lymphocyte stimulation assay system.
Two strains of mice, C57BL/6 and BDF1 are treated for seven days with i.p. administration of either 25, 50, 100, 200, or 400 mg/kg of Cpd. 1 or just buffer. This is followed on the eighth day by a lymphocyte stimulation assay.
A comparison is made of the lymphocyte response of C57BL/6 mice treated 4 days with i.p. administration of either 50, 100, 200, 400 or 800 mg/kg of Cpd. 1, 50, 100, 200, 400 or 800 mg/kg of ascorbic acid (AA), or just buffer. This is followed on the fifth day by a lymphocyte stimulation assay.
Two strains of mice, C57BL/6 and BALB/c, are treated 4 days with i.p. administration of either 50, 100, 200, or 400 mg/kg of Cpd. 1, or just buffer. This is followed on the fifth day by a lymphocyte stimulation assay.
C57BL/6 mice were treated with four daily i.p. doses of either 50, 100, 200, or 400 mg/kg of Cpd. 1 or just buffer. On the fifth day a lymphocyte stimulation assay was performed.
Mice of the C57BL/6 strain were tested with i.p. administration of either 100, 200, 400 or 600 mg/kg of Cpd. 1 or just buffer. This was followed by removal of spleens and treatment of lymphocytes therein with mitogens PHA and Con-A.
The compound of Example 2, Cpd. 2, was tested in vivo by using C57BL/6 mice and treating them with […] or just buffer for four consecutive days by the i.p. route. On the fifth day a lymphocyte stimulation assay was performed.

spleen lymphocytes [2] = test system: spleen lymphocytes
Text: The effect of the compounds of this invention on the immune response to specific antigens involves immunization of mice with specific antigens such as bovine serum albumin (BSA) or keyhole limpet hemocyanin (KLH). Following immunization, it is possible to assess the cell-mediated or humoral (antibody) immune response to these antigens by various methods:
(1) Lymphocyte stimulation assays can be performed using varying concentrations of the specific antigens as mitogens in the lymphocyte stimulation microculture system described above. The only difference is that the incubation period is extended to five days instead of three as for the polyclonal mitogens.
Mice of the C57BL/6 strain are given i.p. injections of either 50, 100, 200 or 400 mg/kg of Cpd. 1 or buffer for ten days (days 1-10). An antigen, keyhole limpet hemocyanin (KLH), is administered intraperitoneally with Freund's Complete Adjuvant (FCA) on days 1, 7, and 13. Blood samples are taken for assay of the antibody response on days 0, 5, 12, and 17. Spleens are removed, lymphocytes isolated and a lymphocyte stimulation assay with PHA, Con-A or KLH antigen as the mitogens is performed on day 17 of the experiment.

[3] = 100 mg/kg i.p., five day administration
[4] = 200 mg/kg i.p., five day administration
[5] = 400 mg/kg i.p., five day administration
[6] = 600 mg/kg i.p., five day administration

Compound: Cc1ccc(C2(O)C(=O)OC3C(O)COC32O)o1.Cc1ccc(C2(O)C(=O)OC3C(O)COC32O)o1.O=C1CCC(=O)O1 (stereo not drawn) [Cpd. 1, 2-furylbutyrolactone:succinic anhydride]
- deaths or signs of toxicity (CD rats; 5 g/kg oral): No deaths or signs of toxicity
- LD50 (CD rats; single oral dose): > 5000 mg/kg
- deaths or signs of toxicity (CD-1 mice; 5 g/kg oral): No deaths or signs of toxicity
- LD50 (CD-1 mice; single oral dose): > 5000 mg/kg
- Lymphocyte Stimulation Index, PHA (spleen lymphocytes [1]; 50 mg/kg i.p., 4 days): 13.6 and 17.0
- Lymphocyte Stimulation Index, Con-A (spleen lymphocytes [1]; 50 mg/kg i.p., 7 days): 26.0
- Lymphocyte Stimulation Index, Control (no mitogen) (spleen lymphocytes [1]; 50 mg/kg i.p., 7 days): 1.0
- Lymphocyte Stimulation Index, Con-A (spleen lymphocytes [1]; 100 mg/kg i.p., 7 days): 40.0
- Lymphocyte Stimulation Index, Control (no mitogen) (spleen lymphocytes [1]; 100 mg/kg i.p., 7 days): 1.3
- Lymphocyte Stimulation Index, PHA (spleen lymphocytes [1]; 100 mg/kg i.p., 7 days): 17.7
- Lymphocyte Stimulation Index, Con-A (spleen lymphocytes [1]; [3]): 43.9
- Lymphocyte Stimulation Index, Control (no mitogen) (spleen lymphocytes [1]; [3]): .80
- Lymphocyte Stimulation Index, PHA (spleen lymphocytes [1]; [3]): 51.1
- Lymphocyte Stimulation Index, PHA (spleen lymphocytes [1]; 200 mg/kg i.p., 4 days): 42.8 and 25.2 and 23.2
- Lymphocyte Stimulation Index, Con-A (spleen lymphocytes [1]; 200 mg/kg i.p., 7 days): 34.0
- Lymphocyte Stimulation Index, Control (no mitogen) (spleen lymphocytes [1]; 200 mg/kg i.p., 7 days): 1.0
- Lymphocyte Stimulation Index, PHA (spleen lymphocytes [1]; 200 mg/kg i.p., 7 days): 21.3
- Lymphocyte Stimulation Index, Con-A (spleen lymphocytes [1]; [4]): 36.6
- Lymphocyte Stimulation Index, Control (no mitogen) (spleen lymphocytes [1]; [4]): .62
- Lymphocyte Stimulation Index, PHA (spleen lymphocytes [1]; [4]): 48.2
- Lymphocyte Stimulation Index, Con-A (spleen lymphocytes [1]; 400 mg/kg i.p., 4 days): 40.0 and 30.9 and 26.4
- Lymphocyte Stimulation Index, Con-A (spleen lymphocytes [1]; 400 mg/kg i.p., 7 days): 20.7
- Lymphocyte Stimulation Index, Control (no mitogen) (spleen lymphocytes [1]; 400 mg/kg i.p., 7 days): 1.0
- Lymphocyte Stimulation Index, PHA (spleen lymphocytes [1]; 400 mg/kg i.p., 7 days): 3.2
- Lymphocyte Stimulation Index, Con-A (spleen lymphocytes [1]; [5]): 42.4
- Lymphocyte Stimulation Index, Control (no mitogen) (spleen lymphocytes [1]; [5]): .49
- Lymphocyte Stimulation Index, PHA (spleen lymphocytes [1]; [5]): 44.9
- Lymphocyte Stimulation Index, Con-A (spleen lymphocytes [1]; [6]): 26.5
- Lymphocyte Stimulation Index, Control (no mitogen) (spleen lymphocytes [1]; [6]): 1.7
- Lymphocyte Stimulation Index, PHA (spleen lymphocytes [1]; [6]): 17.6
- evidence of toxicity (spleen lymphocytes [1]; 600 mg/kg, five day administration): no evidence of toxicity
- Lymphocyte Stimulation Index, Con-A (spleen lymphocytes [1]; 800 mg/kg i.p., 4 days): .612
- Lymphocyte Stimulation Index, Control (no mitogen) (spleen lymphocytes [1]; 800 mg/kg i.p., 4 days): .31
- Lymphocyte Stimulation Index, PHA (spleen lymphocytes [1]; 800 mg/kg i.p., 4 days): .408
- effect on Con-A response (in words) (spleen lymphocytes [1]; 4 days): doses ranging from 50 to 200 mg/kg have a significant stimulatory effect; also recorded: doses ranging from 400 to 800 mg/kg have a significant anti-proliferative effect
- effect on PHA response (in words) (spleen lymphocytes [1]; 4 days): doses of 100 and 200 mg/kg of Cpd. 1 tend to stimulate lymphocyte DNA synthesis; also recorded: Doses ranging from 400 to 800 suppress DNA synthesis of spleen lymphocytes; also recorded: a decrease in the response to PHA at the 400 mg/kg dose when compared to the response at the 200 mg/kg dose
- effect on mitogen response (in words) (spleen lymphocytes [1]; 7 days): strong suppression of the PHA response in the C57BL/6 mice; also recorded: a suppression of the Con-A response in C57BL/6 mice when compared to the 200 mg/kg dose; also recorded: at a dose of 200 mg/kg in C57BL/6 mice; also recorded: in the C57BL/6 strain, it is increased at doses of 50, 100 and 200 mg/kg
- effect on mitogen response (in words) (spleen lymphocytes [1]; five day administration): Doses ranging from 100 to 400 mg/kg of Cpd. 1 caused significant stimulation of both the Con-A and PHA treated lymphocytes; also recorded: The high dose, 600 mg/kg, caused less stimulation than the 100 to 400 mg/kg doses and gave levels comparable to controls
- effect on mitogen response (in words) (spleen lymphocytes [1]; four daily doses): Stimulation of the response to polyclonal mitogens at doses of Cpd. 1 from 50-400 mg/kg with a maximum response achieved between doses of 100-200 mg/kg
- Lymphocyte Stimulation Index, Con-A (spleen lymphocytes [2]; 50 mg/kg, Day 17): 19.0
- Lymphocyte Stimulation Index (spleen lymphocytes [2]; 50 mg/kg, KLH 0.025 μg/well, Day 17): 0.0386
- Lymphocyte Stimulation Index (spleen lymphocytes [2]; 50 mg/kg, KLH 0.05 μg/well, Day 17): 0.357
- Lymphocyte Stimulation Index (spleen lymphocytes [2]; 50 mg/kg, KLH 0.5 μg/well, Day 17): 0.415
- Lymphocyte Stimulation Index (spleen lymphocytes [2]; 50 mg/kg, KLH 1.0 μg/well, Day 17): 0.536
- Lymphocyte Stimulation Index (spleen lymphocytes [2]; 100 mg/kg, KLH 0.025 μg/well, Day 17): 0.401
- Lymphocyte Stimulation Index (spleen lymphocytes [2]; 100 mg/kg, KLH 0.05 μg/well, Day 17): 0.526
- Lymphocyte Stimulation Index (spleen lymphocytes [2]; 100 mg/kg, KLH 0.5 μg/well, Day 17): 0.734
- Lymphocyte Stimulation Index (spleen lymphocytes [2]; 100 mg/kg, KLH 1.0 μg/well, Day 17): 0.898
- lymphocyte DNA synthesis (in words) (spleen lymphocytes [2]; 200 mg/kg, Con-A or KLH, day 17): statistically significant increase in lymphocyte DNA synthesis
- Lymphocyte Stimulation Index (spleen lymphocytes [2]; 200 mg/kg, KLH 0.025 μg/well, Day 17): 3.91
- Lymphocyte Stimulation Index (spleen lymphocytes [2]; 200 mg/kg, KLH 0.05 μg/well, Day 17): 1.02
- Lymphocyte Stimulation Index (spleen lymphocytes [2]; 200 mg/kg, KLH 0.5 μg/well, Day 17): 4.26
- Lymphocyte Stimulation Index (spleen lymphocytes [2]; 200 mg/kg, KLH 1.0 μg/well, Day 17): 7.45
- Lymphocyte Stimulation Index, Control (no mitogen) (spleen lymphocytes [2]; 400 mg/kg, Day 17): 0.840
- Lymphocyte Stimulation Index (spleen lymphocytes [2]; 400 mg/kg, KLH 0.025 μg/well, Day 17): 1.03
- Lymphocyte Stimulation Index (spleen lymphocytes [2]; 400 mg/kg, KLH 0.05 μg/well, Day 17): 0.667
- Lymphocyte Stimulation Index (spleen lymphocytes [2]; 400 mg/kg, KLH 0.5 μg/well, Day 17): 0.232
- Lymphocyte Stimulation Index (spleen lymphocytes [2]; 400 mg/kg, KLH 1.0 μg/well, Day 17): 0.589

Compound: 2-furylbutyrolactone:succinimide [Cpd. 2]
- Lymphocyte Stimulation Index, Con-A (spleen lymphocytes [1]; 50 mg/kg i.p., 4 days): 96.1
- Lymphocyte Stimulation Index, Control (no mitogen) (spleen lymphocytes [1]; 50 mg/kg i.p., 4 days): .88
- Lymphocyte Stimulation Index, PHA (spleen lymphocytes [1]; 50 mg/kg i.p., 4 days): 15.5
- Lymphocyte Stimulation Index, Con-A (spleen lymphocytes [1]; 100 mg/kg i.p., 4 days): 105
- Lymphocyte Stimulation Index, Control (no mitogen) (spleen lymphocytes [1]; 100 mg/kg i.p., 4 days): 1.5
- Lymphocyte Stimulation Index, PHA (spleen lymphocytes [1]; 100 mg/kg i.p., 4 days): 15.4
- Lymphocyte Stimulation Index, Con-A (spleen lymphocytes [1]; 200 mg/kg i.p., 4 days): 99.3
- Lymphocyte Stimulation Index, Control (no mitogen) (spleen lymphocytes [1]; 200 mg/kg i.p., 4 days): .69
- Lymphocyte Stimulation Index, PHA (spleen lymphocytes [1]; 200 mg/kg i.p., 4 days): 11.3
- Lymphocyte Stimulation Index, Con-A (spleen lymphocytes [1]; 400 mg/kg i.p., 4 days): 109
- Lymphocyte Stimulation Index, Control (no mitogen) (spleen lymphocytes [1]; 400 mg/kg i.p., 4 days): 1.3
- Lymphocyte Stimulation Index, PHA (spleen lymphocytes [1]; 400 mg/kg i.p., 4 days): 12.9
- Lymphocyte Stimulation Index, Con-A (spleen lymphocytes [1]; 600 mg/kg i.p., 4 days): 94.0
- Lymphocyte Stimulation Index, Control (no mitogen) (spleen lymphocytes [1]; 600 mg/kg i.p., 4 days): 1.5
- Lymphocyte Stimulation Index, PHA (spleen lymphocytes [1]; 600 mg/kg i.p., 4 days): 15.8
- effect on Con-A response (in words) (spleen lymphocytes [1]; 4 days): only marginal stimulation of Con-A mitogenesis
- effect on PHA response (in words) (spleen lymphocytes [1]; 4 days): no effect on PHA mitogenesis
